Source: patent publication US20110053908A1, “AZETIDINE-DERIVED COMPOUNDS, PREPARATION METHOD THEREFOR AND THERAPEUTIC USE OF SAME” (SANOFI-AVENTIS, priority 2008, published 2011)
Where a name gives a salt, the structure may show the parent alone.

Tests used:
[1] = target: T1, CB1-type cannabinoid receptor (Mus musculus, UniProt P47746); test: inhibition of gastrointestinal transit induced by racemic CP55,940 in mice (charcoal bolus); type: in vivo; settings: 1 mg/kg po; male CD1 mice; CP55,940 0.15 mg/kg ip; progression of charcoal bolus
T1 construct: male CD1 mice receive the test product per os; from tissue; host or cells: whole animal, male CD1 mice
Text: Thirty minutes later, the animals are sacrificed by euthanasia (CO2/O2) and the intestine is dissected. The progression of the charcoal bolus in the intestine is expressed as percentage of the total length of the intestine.
Consequently, the compounds of the invention of formula (I) are in vitro and in vivo CB1-type cannabinoid receptor antagonists. Some compounds are active in vivo with regard to both the hypothermia test and the transit test, and some compounds show activities split up between the hypothermia test and the transit test.

human CB1 receptor = target: T2, human CB1 receptor (Homo sapiens, UniProt P21554); test: intracellular cyclic AMP functional test in U373MG cells (HTRF cAMP Dynamic Kit); type: cell-based; settings: U373MG cells naturally expressing the human CB1 receptor
T2 construct: U373MG cells naturally expressing the human CB1 receptor; endogenous in cells; host or cells: U373MG cells
Method: The compounds according to the invention have formed the subject of pharmacological assays which make it possible to determine the activity with regard to human CB1-type cannabinoid receptors. The effectiveness of the compounds of formula (I) was determined in a functional test in which the activity of the CB1 cannabinoid receptors is measured (intracellular cyclic AMP test). The test for detecting intracellular cyclic AMP in U373MG cells naturally expressing the human CB1 receptor was carried out as described in the reference: Bouaboula et al., 1995, J. Biol. Chem. 270: 13973-13980. The HTRF cAMP Dynamic Kit from CisBio was used to quantify the intracellular cyclic AMP. In this test, the IC50 values are between 0.001 μM and 2 μM.

CB cannabinoid receptor = target: T3, CB cannabinoid receptor (Mus musculus, UniProt P47746); test: hypothermia induced by CB agonist racemic CP55,940 in mice (rectal temperature); type: in vivo; settings: 3 mg/kg po; male CD1 mice; CP55,940 1.25 mg/kg i.p.; rectal temperature at 90 minutes
T3 construct: from tissue; host or cells: whole animal, male CD1 mice
Method: Other assays consisting in measuring the in vivo activity of the compounds of the invention were carried out. Their antagonist activity was shown by means of the model of […] induced by a CB cannabinoid receptor agonist (racemic CP55,940 ((1RS,3RS,4RS)-3-[2-hydroxy-4-(1,1-dimethylheptyl)phenyl]-4-(3-hydroxypropyl)cyclohexan-1-ol) at a dose of 1.25 mg/kg) in mice, according to the method described by Pertwee R. G. in Marijuana 84, Harvey D. J. eds., Oxford IRL
Press, 263-277 (1985). At time 0 min, the rectal temperature of male CD1 mice is measured before injection of the test product. At 30 minutes, a further measurement of the rectal temperature of the mice is taken and the racemic CP55,940 agonist ((1RS,3RS,4RS)-3-[2-hydroxy-4-(1,1-dimethylheptyl)phenyl]-4-(3-hydroxypropyl)cyclohexan-1-ol) (1.25 mg/kg i.p. in 10% cremophor) is administered. At 90 minutes, the rectal temperature is again measured. The results are expressed as % with respect to the control batched injected with CP 55,940 (minimum temperature) and to the carrier batch without treatment with CP55,940 (maximum temperature).

T1 sequence (P47746 whole entry): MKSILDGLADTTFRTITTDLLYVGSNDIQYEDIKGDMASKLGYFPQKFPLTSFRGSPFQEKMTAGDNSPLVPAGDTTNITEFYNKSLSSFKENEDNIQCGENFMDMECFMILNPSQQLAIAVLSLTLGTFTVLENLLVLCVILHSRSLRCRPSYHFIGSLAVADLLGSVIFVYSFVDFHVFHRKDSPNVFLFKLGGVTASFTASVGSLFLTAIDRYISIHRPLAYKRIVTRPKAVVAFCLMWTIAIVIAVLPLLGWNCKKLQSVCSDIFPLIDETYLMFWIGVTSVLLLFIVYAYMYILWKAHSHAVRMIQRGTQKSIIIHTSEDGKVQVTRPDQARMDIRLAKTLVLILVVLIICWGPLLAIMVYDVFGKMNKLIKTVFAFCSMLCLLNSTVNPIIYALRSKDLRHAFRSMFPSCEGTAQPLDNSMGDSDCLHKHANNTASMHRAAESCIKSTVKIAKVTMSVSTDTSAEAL
T2 sequence (P21554 whole entry): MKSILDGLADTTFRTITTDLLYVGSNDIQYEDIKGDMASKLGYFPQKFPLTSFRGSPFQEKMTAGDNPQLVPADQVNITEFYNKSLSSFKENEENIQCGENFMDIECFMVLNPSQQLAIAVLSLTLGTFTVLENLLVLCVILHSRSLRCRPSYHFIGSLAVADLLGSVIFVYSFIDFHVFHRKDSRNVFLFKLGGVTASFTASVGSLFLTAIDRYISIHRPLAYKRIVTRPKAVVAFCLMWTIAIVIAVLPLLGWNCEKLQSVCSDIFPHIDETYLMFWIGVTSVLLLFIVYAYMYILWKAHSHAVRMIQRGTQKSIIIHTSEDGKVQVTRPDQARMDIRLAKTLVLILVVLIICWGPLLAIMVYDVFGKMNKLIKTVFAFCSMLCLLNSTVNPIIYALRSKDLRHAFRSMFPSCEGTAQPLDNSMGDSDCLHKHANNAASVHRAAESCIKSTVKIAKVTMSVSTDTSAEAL
T3 sequence (P47746 whole entry): as the sequence (P47746 whole entry) above

Structure (SMILES) | percentage of inhibition [1] | IC50 (human CB1 receptor) | melting point | percentage of inhibition (CB cannabinoid receptor)
CS(=O)(=O)N(c1cc(C(=O)N[C@H]2CCC[C@@H]2O)cc(C(F)(F)F)c1)C1CN(C(c2ccc(Cl)cc2)c2ccc(Cl)cc2)C1 (racemic) [compound 41, 3-({1-[bis(4-chlorophenyl)methyl]azetidin-3-yl} (methanesulphonyl)amino)-N-((1SR,2SR)-2-hydroxycyclopent-1-yl)-5-(trifluoromethyl)benzamide] | 91% |  |  | 
CS(=O)(=O)N(c1cccc(C(=O)NCCO)c1)C1CN(C(c2ccc(Cl)cc2)c2ccc(Cl)cc2)C1 [Compound No. 7, 3-({1-[Bis(4-chlorophenyl)methyl]azetidin-3-yl}(methanesulphonyl)amino)-N-(2-hydroxyethyl)benzamide hydrochloride (1:1)] |  | 61 nM |  | 
CC(C)(CO)NC(=O)c1cccc(N(C2CN(C(c3ccc(Cl)cc3)c3ccc(Cl)cc3)C2)S(C)(=O)=O)c1 [compound 16, 3-({1-[bis(4-chlorophenyl)methyl]azetidin-3-yl}(methanesulphonyl)amino)-N-(2-hydroxy-1,1-dimethylethyl)benzamide] |  |  | 162 °C | 
CS(=O)(=O)N(c1cc(F)cc(C(=O)NC(CO)CO)c1)C1CN(C(c2ccc(Cl)cc2)c2ccc(Cl)cc2)C1 [Compound No. 26, 3-({1-[Bis(4-chlorophenyl)methyl]azetidin-3-yl}(methanesulphonyl)amino)-5-fluoro-N-(2-hydroxy-1-(hydroxymethyl)ethyl)benzamide] |  | 20 nM | 144 to 146 °C | 
CC(CO)(CO)NC(=O)c1cccc(N(C2CN(C(c3ccc(Cl)cc3)c3ccc(Cl)cc3)C2)S(C)(=O)=O)c1 [compound 18, 3-({1-[bis(4-chlorophenyl)methyl]azetidin-3-yl}(methanesulphonyl)amino)-N-[1,3-dihydroxy-2-methylprop-2-yl]benzamide] |  | 6 nM | 192 °C | 
CS(=O)(=O)N(c1cccc(C(=O)NC(CO)CO)c1)C1CN(C(c2ccc(Cl)cc2)c2ccc(Cl)cc2)C1 [Compound No. 17, 3-({1-[Bis(4-chlorophenyl)methyl]azetidin-3-yl}(methanesulphonyl)amino)-N-(2-hydroxy-1-(hydroxymethyl)ethyl)benzamide] |  |  | 192 to 194 °C | 
CC(CO)(CO)NC(=O)c1cc(F)cc(N(C2CN(C(c3ccc(Cl)cc3)c3ccc(Cl)cc3)C2)S(C)(=O)=O)c1 [Compound No. 27, 3-({1-[Bis(4-chlorophenyl)methyl]azetidin-3-yl}(methanesulphonyl)amino)-5-fluoro-N-(2-hydroxy-1-hydroxymethyl-1-methylethyl)benzamide] | 58% |  | 159 to 161 °C | 
CC1(C)OCC(CNC(=O)c2cccc(N(C3CN(C(c4ccc(Cl)cc4)c4ccc(Cl)cc4)C3)S(C)(=O)=O)c2)O1 (single isomer, unassigned; (-)) [Compound No. 5, (−)-3-({1-[Bis(4-chlorophenyl)methyl]azetidin-3-yl}(methanesulphonyl)amino)-N-(2,2-dimethyl-1,3-dioxolan-4-ylmethyl)benzamide] |  | 22 nM |  | 
CS(=O)(=O)N(c1cc(F)cc(C(=O)NCC(O)C(F)(F)F)c1)C1CN(C(c2ccc(Cl)cc2)c2ccc(Cl)cc2)C1 (centres unmarked) [compound 30, 3-({1-[bis(4-chlorophenyl)methyl]azetidin-3-yl}(methanesulphonyl)amino)-5-fluoro-N-(3,3,3-trifluoro-2-hydroxyprop-1-yl)benzamide] |  | 66 nM |  | 
CC(C)(O)CNC(=O)c1cccc(N(C2CN(C(c3ccc(Cl)cc3)c3ccc(Cl)cc3)C2)S(C)(=O)=O)c1 [compound 13, 3-({1-[bis(4-chlorophenyl)methyl]azetidin-3-yl}(methanesulphonyl)amino)-N-(2-hydroxy-2-methylprop-1-yl)benzamide] |  |  | 140 °C | 
CS(=O)(=O)N(c1cccc(C(=O)NC2(CCO)CC2)c1)C1CN(C(c2ccc(Cl)cc2)c2ccc(Cl)cc2)C1 [compound 21, 3-({1-[bis(4-chlorophenyl)methyl]azetidin-3-yl}(methanesulphonyl)amino)-N-[1-(2-hydroxyethyl)cyclopropyl]benzamide] |  | 38 nM |  | 
CC(CO)NC(=O)c1cc(F)cc(N(C2CN(C(c3ccc(Cl)cc3)c3ccc(Cl)cc3)C2)S(C)(=O)=O)c1 (single isomer, unassigned; (+)) [Compound No. 25, (+)-3-({1-[Bis(4-chlorophenyl)methyl]azetidin-3-yl}(methanesulphonyl)amino)-5-fluoro-N-(2-hydroxy-1-methylethyl)benzamide] |  |  | 148 to 150 °C | 18%
CS(=O)(=O)N(c1cc(F)cc(C(=O)N[C@H]2COC[C@@H]2O)c1)C1CN(C(c2ccc(Cl)cc2)c2ccc(Cl)cc2)C1 (racemic) [compound 47, 3-({1-[bis(4-chlorophenyl)methyl]azetidin-3-yl}(methanesulphonyl)amino)-5-fluoro-N-((3SR,4RS)-4-hydroxytetrahydrofuran-3-yl)benzamide] |  | 72 nM |  | 
C[C@@H](CO)NC(=O)c1cc(N(C2CN(C(c3ccc(Cl)cc3)c3ccc(Cl)cc3)C2)S(C)(=O)=O)cc(C(F)(F)F)c1 [compound 36, (+)-3-({1-[bis(4-chlorophenyl)methyl]azetidin-3-yl}(methanesulphonyl)amino)-N—((S)-1-hydroxyprop-2-yl)-5-(trifluoromethyl)benzamide] | 85% | 16 nM |  | 
C[C@@H](CO)NC(=O)c1cccc(N(C2CN(C(c3ccc(Cl)cc3)c3ccc(Cl)cc3)C2)S(C)(=O)=O)c1 [Compound No. 9, (+)-3-({1-[Bis(4-chlorophenyl)methyl]azetidin-3-yl}(methanesulphonyl)amino)-N-(2-hydroxy-1-methylethyl)benzamide] | 82% | 15 nM | 192 to 194 °C | 30%
